This is an account of results in PMC9820311, “Characterization of a Novel Amphiphilic Cationic Chlorin Photosensitizer for Photodynamic Applications” (International Journal of Molecular Sciences, 2022).

This experiment concerns the target T1, bovine serum albumin (BSA) (Bos taurus, UniProt P02769).
T1 construct: gene ALB
The experiment in a line: BSA intrinsic fluorescence quenching titration (Stern-Volmer; λex = […] nm, […] BSA), supported by chlorin fluorescence increase and DLS. Type of experiment: binding. The conditions noted are these: read-out: BSA intrinsic fluorescence quenching titration (Stern-Volmer); λex = 290 nm, 5 μM (converted).

The structures appear in SMILES notation.

T1 sequence (P02769 25-607): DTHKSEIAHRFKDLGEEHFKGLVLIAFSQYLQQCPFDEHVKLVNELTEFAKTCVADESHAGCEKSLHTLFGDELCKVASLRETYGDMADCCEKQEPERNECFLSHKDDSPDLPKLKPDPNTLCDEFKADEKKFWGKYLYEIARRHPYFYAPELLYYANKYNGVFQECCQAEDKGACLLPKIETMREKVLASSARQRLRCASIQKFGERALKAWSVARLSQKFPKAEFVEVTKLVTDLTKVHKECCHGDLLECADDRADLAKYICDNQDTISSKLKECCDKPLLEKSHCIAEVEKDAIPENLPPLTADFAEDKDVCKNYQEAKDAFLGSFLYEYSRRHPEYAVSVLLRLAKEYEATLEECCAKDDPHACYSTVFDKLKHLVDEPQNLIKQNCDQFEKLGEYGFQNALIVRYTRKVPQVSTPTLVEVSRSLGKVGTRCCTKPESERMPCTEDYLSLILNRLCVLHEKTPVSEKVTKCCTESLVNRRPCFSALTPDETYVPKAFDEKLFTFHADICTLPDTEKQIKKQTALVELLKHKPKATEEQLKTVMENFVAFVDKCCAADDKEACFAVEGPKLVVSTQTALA

In the case of `CCC1=C(C)c2cc3[nH]c(cc4nc(c(CC(=O)OC)c5[nH]c(cc1n2)c(C)c5C(=O)NC)[C@@H](CCC(=O)OC/C=C(\C)CCCC(C)CCCC(C)CCCC(C)C)[C@@H]4C)c(C)c3C(=CC[N+](C)(C)C)C[N+](C)(C)C` (mixture of isomers) [compound 1, 3(1),3(2)-bis(N,N,N-trimethylaminomethyliodide) chlorin e6 13(1)-N-methylamide-15(2)-methyl,17(3)-phytyl ester], the Kd is 2740 nM.
